Reference: paper PMC11904993, “Humanized Candida and NanoBiT Assays Expedite Discovery of Bdf1 Bromodomain Inhibitors With Antifungal Potential” (Advanced Science, 2025)
Several values for one entry are separate records, joined by “and”; a condition that tells them apart may be missing. Identical values can stand only once. Like-named read-outs stand apart in the source and are kept apart here.

Key:
C. albicans = test: Growth of reference and clinical strains in liquid media; assay type: cell-based; conditions: for EC50: Candida albicans
Method: (§1) Strains were presented in Table S8 (Supporting Information). Cells from a single colony were diluted in 0.85% NaCl before being counted using a Neubauer chamber. They were diluted to a final concentration of 6500 cells mL^−1 per well for all clinical strains of C. albicans and C. glabrata; 65 000 cells mL^−1 per well for C. auris; 13 500 cells mL^−1 per well for C. parapsilosis; 3375 cells mL^−1 per well for C. krusei and 1687.5 cells mL^−1 per well for C. tropicalis, in a sterile 96‐well plate. Cells were then grown in SC medium with or without chemical compounds at 30 °C with regular shaking. The significance of growth defects was assessed using Holm‐Sidak method by GraphPad Prism 10.

C. glabrata = test: as above; assay type: cell-based; conditions: for Growth (%): C. glabrata; for EC50: Nakaseomyces glabratus
Method: as §1

Bdf1/Swc4 = molecular target: T1, Bdf1/Swc4 (Saccharomyces cerevisiae, UniProt P35817); test: NanoBiT assay, control pair; assay type: cell-based, S. cerevisiae; set-up: remaining activity: dose or concentration left out as unconfirmed
T1 construct: expressed in transfected cells; host or cells: S. cerevisiae
Method: (§2) Yeast strains were distributed in 96‐well microplates containing SC(MSG)‐U medium (SC‐U medium with 0.1% monosodium glutamate instead of ammonium sulfate as a nitrogen source) and grown at 30 °C. 40 µL of exponentially growing cells were transferred in white 96‐well half‐area microplates (ProxiPlate Plus, Greiner Bio‐One) previously filled with 40 µL per well of SC(MSG) containing 100 µM furimazine. The microplates were then incubated for 10 min in the dark before the luminescence signals were recorded using a microplate reader (Ensight, PerkinElmer). Luminescence measurements were performed for 1 s per well at a distance of 0.1 mm between the plate and the detector. The luminescence values were normalized with the optical density (OD600) of the corresponding cultures. For NanoBiT assays with BET inhibitors, yeast cultures were grown overnight at 30 °C in SC(MSG) medium in the presence of serial dilutions of 24c and I‐BET726. Overnight cultures were diluted 5 fold in SC(MSG) and incubated for 1 h before luminescence was recorded as previously indicated. Luminescence values for each condition were normalized using the average of the luminescence recorded for the Bdf1/Swc4 and Bmh1/Bmh2 controls.

Bmh1/Bmh2 = test: NanoBiT assay, control pair; assay type: cell-based, S. cerevisiae; set-up: Normalized nanoBiT signal: unit of the concentration uncertain
Method: as §2

T1 sequence (P35817 whole entry): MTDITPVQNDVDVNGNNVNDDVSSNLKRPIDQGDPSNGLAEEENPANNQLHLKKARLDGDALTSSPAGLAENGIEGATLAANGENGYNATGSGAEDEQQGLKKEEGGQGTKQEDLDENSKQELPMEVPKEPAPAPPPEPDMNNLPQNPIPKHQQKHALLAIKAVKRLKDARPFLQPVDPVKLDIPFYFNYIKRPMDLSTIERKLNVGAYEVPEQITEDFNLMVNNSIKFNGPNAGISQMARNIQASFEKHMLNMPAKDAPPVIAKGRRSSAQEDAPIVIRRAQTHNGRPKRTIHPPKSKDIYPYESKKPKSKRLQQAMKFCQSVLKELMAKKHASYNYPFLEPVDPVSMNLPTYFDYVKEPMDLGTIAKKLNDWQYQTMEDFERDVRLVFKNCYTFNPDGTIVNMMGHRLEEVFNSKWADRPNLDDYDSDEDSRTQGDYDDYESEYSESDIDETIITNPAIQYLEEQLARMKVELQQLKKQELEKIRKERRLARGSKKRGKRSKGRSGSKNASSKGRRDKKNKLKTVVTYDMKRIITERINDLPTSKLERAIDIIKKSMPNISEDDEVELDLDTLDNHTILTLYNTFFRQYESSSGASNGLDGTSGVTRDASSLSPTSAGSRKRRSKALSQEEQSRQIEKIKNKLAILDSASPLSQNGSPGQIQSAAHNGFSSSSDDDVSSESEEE
T1 sequence (P53201 whole entry, further chain): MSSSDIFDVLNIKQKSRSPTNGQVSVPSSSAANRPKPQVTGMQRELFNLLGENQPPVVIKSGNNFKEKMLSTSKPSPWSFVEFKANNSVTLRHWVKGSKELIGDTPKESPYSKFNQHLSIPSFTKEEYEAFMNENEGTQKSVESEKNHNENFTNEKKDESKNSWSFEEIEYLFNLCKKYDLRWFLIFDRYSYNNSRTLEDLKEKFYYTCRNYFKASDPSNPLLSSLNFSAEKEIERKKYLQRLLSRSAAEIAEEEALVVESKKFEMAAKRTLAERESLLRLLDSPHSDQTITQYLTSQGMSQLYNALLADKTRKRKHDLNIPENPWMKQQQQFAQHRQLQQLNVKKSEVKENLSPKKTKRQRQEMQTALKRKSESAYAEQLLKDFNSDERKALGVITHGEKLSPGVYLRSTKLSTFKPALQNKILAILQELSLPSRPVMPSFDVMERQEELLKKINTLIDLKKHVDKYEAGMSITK

## CC(=O)N1c2ccc(-c3ccc(C(=O)O)cc3)cc2C(Nc2ccc(Cl)cc2)CC1C (centres unmarked) [I-BET726]
C. albicans; Fig 5C, read-out: EC50 (μM), C. albicans
  EC50: 4.3 ± 0.5 µM
C. albicans; Table S5, C. albicans CagR, echinocandin-resistant, not characterized, read-out: EC50 growth inhibition
  EC50: 4.14 ± 0.48 µM
C. albicans; all eight azole- and echinocandin-resistant C. albicans clinical isolates, read-out: EC50 growth inhibition
  EC50: 5 to 10 µM
C. albicans; read-out: EC50 growth inhibition, Table S5, C. albicans AF1, echinocandin-resistant, Fks1-HS1 (S645P)
  EC50: 7.13 ± 1.48 µM
C. albicans; read-out: EC50 growth inhibition, Table S5, C. albicans AF2, echinocandin-resistant, Fks1-HS1 (S645P)
  EC50: 4.59 ± 0.95 µM
C. albicans; read-out: EC50 growth inhibition, Table S5, C. albicans AF3, echinocandin-resistant, Fks1-HS1 (S645P)
  EC50: 6.83 ± 0.26 µM
C. albicans; read-out: EC50 growth inhibition, Table S5, C. albicans CAAL74, fluconazole-resistant, Erg11 (Y132F, E266D, G448V, V488I)
  EC50: 5.87 ± 1.03 µM
C. albicans; read-out: EC50 growth inhibition, Table S5, C. albicans DSY292, azole-resistant, Erg11 (Y132H, G464S, R467K)
  EC50: 3.07 ± 0.26 µM
C. albicans; read-out: EC50 growth inhibition, Table S5, C. albicans DSY296, azole-resistant, Erg11 (G129A, G464S, G450E), Tac1 (N977D)
  EC50: 7.36 ± 0.76 µM
C. albicans; read-out: EC50 growth inhibition, Table S5, C. albicans DSY2323, azole-resistant, Erg11 (S405F), Tac1 (G980E)
  EC50: 11.5 ± 1.7 µM
C. albicans; strain AF1, 25 µM, Fig 5E
  Growth (%): 34% and 31% and 28%
C. albicans; strain AF2, 25 µM, Fig 5E
  Growth (%): 26% and 28% and 29%
C. albicans; strain AF3, 25 µM, Fig 5E
  Growth (%): 26% and 25% and 28%
C. albicans; strain CAAL74, 3.13 µM, Fig 5D
  Growth (%): 67% and 74% and 60%
C. albicans; strain CagR, 25 µM, Fig 5E
  Growth (%): 18% and 12%
C. albicans; strain DSY292, 0.78 µM, Fig 5D
  Growth (%): 84% and 81% and 86%
C. albicans; strain DSY292, 3.13 µM, Fig 5D
  Growth (%): 55% and 51%
C. albicans; strain DSY296, 0.78 µM, Fig 5D
  Growth (%): 97% and 88% and 92%
C. albicans; strain DSY296, 3.13 µM, Fig 5D
  Growth (%): 71% and 66% and 72%
C. albicans; strain DSY2323, 3.13 µM, Fig 5D
  Growth (%): 85% and 88% and 76%
C. glabrata; 1.5625 µM, Fig 5C
  Growth (%): 91% and 84% and 88%
C. glabrata; 3.125 µM, Fig 5C
  Growth (%): 88% and 77% and 93%
C. glabrata; 25 µM, Fig 5C
  Growth (%): 62% and 60% and 75%
C. glabrata; read-out: EC50 growth inhibition, Table S5, C. glabrata DSY565, azole-resistant, Pdr1 (L280F)
  EC50: 1.14 ± 0.62 µM
C. glabrata; read-out: EC50 growth inhibition, Table S5, C. glabrata HAB1, azole-resistant, Pdr1 (T370I)
  EC50: 1.66 ± 0.56 µM
C. glabrata; Fig 5C, read-out: EC50 (μM), C. glabrata
  EC50: 12 ± 5.6 µM
C. glabrata; Table S5, C. glabrata ATCC2001, WT, read-out: EC50 growth inhibition
  EC50: 1.52 ± 0.44 µM
Bdf1/Swc4; Bdf1-SmBiT, Swc4-LgBiT, 0.02441 mM, Fig 4C, read-out: Normalized nanoBiT signal
  remaining activity at 24.41 µM: 95%
Bdf1/Swc4; Bdf1-SmBiT, Swc4-LgBiT, 0.09766 mM, Fig 4C, read-out: Normalized nanoBiT signal
  remaining activity at 97.66 µM: 93%
Bdf1/Swc4; Bdf1-SmBiT, Swc4-LgBiT, 0.19531 mM, Fig 4C, read-out: Normalized nanoBiT signal
  remaining activity at 195.31 µM: 95%
Bdf1/Swc4; Bdf1-SmBiT, Swc4-LgBiT, 0.39063 mM, Fig 4C, read-out: Normalized nanoBiT signal
  remaining activity at 390.63 µM: 91%
Bdf1/Swc4; Bdf1-SmBiT, Swc4-LgBiT, 0.78125 mM, Fig 4C, read-out: Normalized nanoBiT signal
  remaining activity at 781.25 µM: 90%
Bdf1/Swc4; Bdf1-SmBiT, Swc4-LgBiT, […], Fig 4C, read-out: Normalized nanoBiT signal
  remaining activity: 99%
Bdf1/Swc4; control pair independent of Bdf1 BDs
  inhibition of NanoBiT signal, Bdf1/Swc4: not observed
Bdf1/Swc4; read-out: Normalized nanoBiT signal
  remaining activity at 48.83 µM: 92%
Bmh1/Bmh2
  Normalized nanoBiT signal: 108% and 107% and 96% and 97%
Bmh1/Bmh2; Bmh1-LgBiT, Bmh2-SmBiT, 0.02441 (unit uncertain), Fig 4C
  Normalized nanoBiT signal: 104% and 103% and 105% and 97%
Bmh1/Bmh2; Bmh1-LgBiT, Bmh2-SmBiT, 0.09766 (unit uncertain), Fig 4C
  Normalized nanoBiT signal: 105% and 106% and 103% and 100%
Bmh1/Bmh2; Bmh1-LgBiT, Bmh2-SmBiT, 0.19531 (unit uncertain), Fig 4C
  Normalized nanoBiT signal: 105% and 94% and 98%
Bmh1/Bmh2; Bmh1-LgBiT, Bmh2-SmBiT, 0.39063 (unit uncertain), Fig 4C
  Normalized nanoBiT signal: 110% and 103% and 98% and 96%
Bmh1/Bmh2; Bmh1-LgBiT, Bmh2-SmBiT, 0.78125 (unit uncertain), Fig 4C
  Normalized nanoBiT signal: 109% and 110% and 93% and 102%
Bmh1/Bmh2; Bmh1-LgBiT, Bmh2-SmBiT, 1.56250 (unit uncertain), Fig 4C
  Normalized nanoBiT signal: 115% and 111% and 95% and 99%
Bmh1/Bmh2; Bmh1-LgBiT, Bmh2-SmBiT, 3.12500 (unit uncertain), Fig 4C
  Normalized nanoBiT signal: 112% and 118% and 104% and 101%
Bmh1/Bmh2; unrelated control pair
  inhibition of NanoBiT signal, Bmh1/Bmh2: not observed
